Results as given in patent publication US20250114338A1, “TETRAHYDRO-PYRIDO[3,4-b]INDOLE ESTROGEN RECEPTOR MODULATORS AND USES THEREOF” (Genentech, Inc., priority 2014, published 2025).

Test system: ER-alpha MCF7
Assay: ER-alpha MCF7 HCS EC50; stated as measured by in vitro cell proliferation assays of Examples 902 and 903
Format: cell-based
Conditions: Homo sapiens, MCF7, MCF7 cells; Table 2
Summary of the method: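 MCF7 cells seeded 1000-2000 cells/well for 16 h, then treated with nine-point 1:2 DMSO dilution series in quadruplicate at 37 °C, 5% CO2 for 4 days. Viable cells quantified by CellTiter-Glo ATP luminescence; EC50 calculated. Controls: fulvestrant at final 100 nM, DMSO 0.2% v/v.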

| Structure (SMILES) | EC50 |
| --- | --- |
| C[C@@H]1Cc2c([nH]c3ccccc23)[C@@H](c2c(F)cc(OC3CN(CCCF)C3)cc2F)N1CC(F)F [Example 303, (1R,3R)-2-(2,2-difluoroethyl)-1-[2,6-difluoro-4-[1-(3-fluoropropyl)azetidin-3-yl]oxy-phenyl]-3-methyl-1,3,4,9-tetrahydropyrido[3,4-b]indole] | 0.0482 nM |
| C[C@@H]1Cc2c([nH]c3ccccc23)[C@@H](c2c(F)cc(NC3CN(CCCF)C3)cc2F)N1CC(F)(F)F [Example 304, N-(3,5-difluoro-4-((1R,3R)-3-methyl-2-(2,2,2-trifluoroethyl)-2,3,4,9-tetrahydro-1H-pyrido[3,4-b]indol-1-yl)phenyl)-1-(3-fluoropropyl)azetidin-3-amine] | 0.224 nM |
| C[C@@H]1Cc2c([nH]c3ccccc23)[C@@H](c2c(F)cc(OCCN3CC(CF)C3)cc2F)N1CC(F)F [Example 305, (1R,3R)-2-(2,2-difluoroethyl)-1-[2,6-difluoro-4-[2-[3-(fluoromethyl)azetidin-1-yl]ethoxy]phenyl]-3-methyl-1,3,4,9-tetrahydropyrido[3,4-b]indole] | 0.216 nM |
| C[C@@H]1Cc2c([nH]c3ccccc23)[C@H](c2c(F)cc(OCCN3CC(CF)C3)cc2F)N1CC(F)F [Example 306, (1S,3R)-2-(2,2-difluoroethyl)-1-[2,6-difluoro-4-[2-[3-(fluoromethyl)azetidin-1-yl]ethoxy]phenyl]-3-methyl-1,3,4,9-tetrahydropyrido[3,4-b]indole] | 3 nM |
| C[C@@H]1Cc2c([nH]c3ccccc23)[C@@H](c2c(F)cc(OC3CN(C4CC(F)(F)C4)C3)cc2F)N1CC(C)(C)F [Example 307, (1R,3R)-1-[4-[1-(3,3-difluorocyclobutyl)azetidin-3-yl]oxy-2,6-difluoro-phenyl]-2-(2-fluoro-2-methyl-propyl)-3-methyl-1,3,4,9-tetrahydropyrido[3,4-b]indole] | 0.193 nM |
| C[C@@H]1Cc2c([nH]c3ccccc23)[C@@H](c2c(F)cc(OC3CN(C/C=C/F)C3)cc2F)N1CC(C)(C)F [Example 308, (1R,3R)-1-[2,6-difluoro-4-[1-[(E)-3-fluoroallyl]azetidin-3-yl]oxy-phenyl]-2-(2-fluoro-2-methyl-propyl)-3-methyl-1,3,4,9-tetrahydropyrido[3,4-b]indole] | 0.127 nM |
| CC(CN1[C@H](c2c(F)cc(OC3CN(CCCF)C3)cc2F)c2[nH]c3ccccc3c2C[C@H]1C)S(C)(=O)=O (stereo partly drawn) [Example 309, (1R,3R)-1-(2,6-difluoro-4-((1-(3-fluoropropyl)azetidin-3-yl)oxy)phenyl)-3-methyl-2-(2-(methylsulfonyl)propyl)-2,3,4,9-tetrahydro-1H-pyrido[3,4-b]indole] | 6 nM |
| C[C@@H]1Cc2c([nH]c3ccccc23)[C@@H](c2ccc(NC3CN(CCCF)C3)cc2)N1S(C)(=O)=O [Example 310, 1-(3-fluoropropyl)-N-[4-[(1R,3R)-3-methyl-2-methylsulfonyl-1,3,4,9-tetrahydropyrido[3,4-b]indol-1-yl]phenyl]azetidin-3-amine] | 0.708 nM |
| C[C@@H]1Cc2c([nH]c3ccccc23)[C@@H](c2c(F)cc(NC3CN(CCCF)C3)cc2F)N1S(C)(=O)=O [Example 311, N-[3,5-difluoro-4-[(1R,3R)-3-methyl-2-methylsulfonyl-1,3,4,9-tetrahydropyrido[3,4-b]indol-1-yl]phenyl]-1-(3-fluoropropyl)azetidin-3-amine] | 0.248 nM |
| C=CS(=O)(=O)N1[C@H](c2ccc(OCCN3CC(CF)C3)cc2)c2[nH]c3ccccc3c2C[C@H]1C [Example 312, (1R,3R)-1-[4-[2-[3-(fluoromethyl)azetidin-1-yl]ethoxy]phenyl]-3-methyl-2-vinylsulfonyl-1,3,4,9-tetrahydropyrido[3,4-b]indole] | 2 nM |
| CNS(=O)(=O)N1[C@H](c2ccc(OCCN3CC(CF)C3)cc2)c2[nH]c3ccccc3c2C[C@H]1C [Example 313, (1R,3R)-1-[4-[2-[3-(fluoromethyl)azetidin-1-yl]ethoxy]phenyl]-N,3-dimethyl-1,3,4,9-tetrahydropyrido[3,4-b]indole-2-sulfonamide] | 1 nM |
| C[C@@H]1Cc2c([nH]c3ccccc23)[C@H](c2ccc(NC3CN(CCCF)C3)cc2)N1S(C)(=O)=O [Example 314, 1-(3-fluoropropyl)-N-[4-[(1S,3R)-3-methyl-2-methylsulfonyl-1,3,4,9-tetrahydropyrido[3,4-b]indol-1-yl]phenyl]azetidin-3-amine] | 9 nM |
| C[C@@H]1Cc2c([nH]c3ccccc23)[C@H](c2c(F)cc(NC3CN(CCCF)C3)cc2F)N1S(C)(=O)=O [Example 315, N-[3,5-difluoro-4-[(1S,3R)-3-methyl-2-methylsulfonyl-1,3,4,9-tetrahydropyrido[3,4-b]indol-1-yl]phenyl]-1-(3-fluoropropyl)azetidin-3-amine] | 2 nM |
| C[C@@H]1Cc2c([nH]c3ccccc23)[C@@H](c2c(F)cc(OC3CN(CCCF)C3)cc2F)N1CC(C)(C)C#N [Example 316, 3-[(1R,3R)-1-[2,6-difluoro-4-[1-(3-fluoropropyl)azetidin-3-yl]oxy-phenyl]-3-methyl-1,3,4,9-tetrahydropyrido[3,4-b]indol-2-yl]-2,2-dimethyl-propanenitrile] | 0.0724 nM |
| C[C@@H]1Cc2c([nH]c3ccccc23)[C@@H](c2c(F)cc(OC3CN(CC=C(F)F)C3)cc2F)N1CC(C)(C)F [Example 317, (1R,3R)-1-[4-[1-(3,3-difluoroallyl)azetidin-3-yl]oxy-2,6-difluoro-phenyl]-2-(2-fluoro-2-methyl-propyl)-3-methyl-1,3,4,9-tetrahydropyrido[3,4-b]indole] | 0.181 nM |
| C[C@@H]1Cc2c([nH]c3ccccc23)[C@@H](c2c(F)cc(OCCN3CC(CF)C3)cc2F)N1C[C@@H](CO)C(F)(F)F [Example 318, (S)-2-(((1R,3R)-1-(2,6-difluoro-4-(2-(3-(fluoromethyl)azetidin-1-yl)ethoxy)phenyl)-3-methyl-1,3,4,9-tetrahydro-2H-pyrido[3,4-b]indol-2-yl)methyl)-3,3,3-trifluoropropan-1-ol] | 1 nM |
| C[C@@H]1Cc2c([nH]c3ccccc23)[C@@H](c2c(F)cc(OCCN3CC(CF)C3)cc2F)N1C[C@H](CO)C(F)(F)F [Example 319, (R)-2-(((1R,3R)-1-(2,6-difluoro-4-(2-(3-(fluoromethyl)azetidin-1-yl)ethoxy)phenyl)-3-methyl-1,3,4,9-tetrahydro-2H-pyrido[3,4-b]indol-2-yl)methyl)-3,3,3-trifluoropropan-1-ol] | 0.43 nM |
| C[C@@H]1Cc2c([nH]c3ccccc23)[C@@H](c2c(F)cc(NCCN3CC(CF)C3)cc2F)N1CC(C)(F)CO (stereo partly drawn) [Example 320, 3-((1R,3R)-1-(2,6-difluoro-4-((2-(3-(fluoromethyl)azetidin-1-yl)ethyl)amino)phenyl)-3-methyl-1,3,4,9-tetrahydro-2H-pyrido[3,4-b]indol-2-yl)-2-fluoro-2-methylpropan-1-ol] | 0.27 nM |
| C[C@@H]1Cc2c([nH]c3ccccc23)[C@@H](c2c(F)cc(NCCN3CC(CF)C3)cc2F)N1CC(C)(C)F [Example 321, 3,5-difluoro-N-[2-[3-(fluoromethyl)azetidin-1-yl]ethyl]-4-[(1R,3R)-2-(2-fluoro-2-methyl-propyl)-3-methyl-1,3,4,9-tetrahydropyrido[3,4-b]indol-1-yl]aniline] | 0.222 nM |
| C[C@@H]1Cc2c([nH]c3ccccc23)[C@@H](c2ccc(NCCN3CC(CF)C3)cc2F)N1CC(C)(C)F [Example 322, 3-fluoro-N-[2-[3-(fluoromethyl)azetidin-1-yl]ethyl]-4-[(1R,3R)-2-(2-fluoro-2-methyl-propyl)-3-methyl-1,3,4,9-tetrahydropyrido[3,4-b]indol-1-yl]aniline] | 0.0253 nM |
| C[C@@H]1Cc2c([nH]c3ccccc23)[C@@H](c2ccc(NCCN3CC(CF)C3)cc2)N1CC(C)(C)F [Example 323, N-[2-[3-(fluoromethyl)azetidin-1-yl]ethyl]-4-[(1R,3R)-2-(2-fluoro-2-methyl-propyl)-3-methyl-1,3,4,9-tetrahydropyrido[3,4-b]indol-1-yl]aniline] | 0.215 nM |
| CCS(=O)(=O)N1[C@H](c2ccc(OCCN3CC(CF)C3)cc2)c2[nH]c3ccccc3c2C[C@H]1C [Example 324, (1R,3R)-2-ethylsulfonyl-1-[4-[2-[3-(fluoromethyl)azetidin-1-yl]ethoxy]phenyl]-3-methyl-1,3,4,9-tetrahydropyrido[3,4-b]indole] | 0.198 nM |
| C[C@@H]1Cc2c([nH]c3ccccc23)[C@@H](c2ccc(NCCN3CC(CF)C3)cc2)N1S(C)(=O)=O [Example 325, N-[2-[3-(fluoromethyl)azetidin-1-yl]ethyl]-4-[(1R,3R)-3-methyl-2-methylsulfonyl-1,3,4,9-tetrahydropyrido[3,4-b]indol-1-yl]aniline] | 1 nM |
| C[C@@H]1Cc2c([nH]c3ccccc23)[C@@H](c2c(F)cc(NCCN3CC(CF)C3)cc2F)N1S(C)(=O)=O [Example 326, 3,5-difluoro-N-[2-[3-(fluoromethyl)azetidin-1-yl]ethyl]-4-[(1R,3R)-3-methyl-2-methylsulfonyl-1,3,4,9-tetrahydropyrido[3,4-b]indol-1-yl]aniline] | 0.305 nM |
| C[C@@H]1Cc2c([nH]c3ccccc23)[C@@H](c2ccc(NCCN3CC(CF)C3)cc2F)N1CC(C)(F)CO (stereo partly drawn) [Example 327, 2-fluoro-3-((1R,3R)-1-(2-fluoro-4-((2-(3-(fluoromethyl)azetidin-1-yl)ethyl)amino)phenyl)-3-methyl-1,3,4,9-tetrahydro-2H-pyrido[3,4-b]indol-2-yl)-2-methylpropan-1-ol] | 0.347 nM |
| C[C@@H]1Cc2c([nH]c3ccccc23)[C@@H](c2ccc(NCCN3CC(CF)C3)cc2)N1CC(C)(F)CO (stereo partly drawn) [Example 328, 2-fluoro-3-((1R,3R)-1-(4-((2-(3-(fluoromethyl)azetidin-1-yl)ethyl)amino)phenyl)-3-methyl-1,3,4,9-tetrahydro-2H-pyrido[3,4-b]indol-2-yl)-2-methylpropan-1-ol] | 0.167 nM |
